Experimental data from patent US20220213092A1, “BICYCLIC PYRAZOLE BRUTON'S TYROSINE KINASE INHIBITORS” (AbbVie Inc., priority 2020, published 2022).
Like-named read-outs stand apart in the source and are kept apart here.

Columns and labels:
Format in all cases: biochemical
[1] = target: MAP2K2 (Homo sapiens, UniProt P36507); experiment: Other kinase MSA: MAP2K2; settings: 30 μM ATP, ERKtide substrate; pre-activation of ERK 30 min, detection after 60 minutes; read-out: IC50, Enzyme MAP2K2
Procedure: (§1) Kinase activity, unless otherwise indicated, was measured in vitro using an electrophoretic mobility shift assay (MSA). The phosphorylation of a peptide substrate by BTK and other kinases was measured. The kinase reactions were assembled in a total volume of 25 μL per well in 384 well plates. The following was added to each well: compound buffer (or control); enzyme buffer; and substrate buffer, as further described below. […]
(§2) Enzyme and compound/inhibitor were optionally pre-incubated. […] The kinase activity for the kinases in Table 3 were measured at 3 hours incubation time, except that in the case of MAP2K1 and MAP2K2 assay, pre-activation of ERK was done for 30 min with 6 μM of ATP, and then the detection of activated ERK in the presence of compounds was done after 60 minutes of incubation.
(§3) The terminated reactions were analyzed using a 12 channel LABCHIP® 3000 microfluidic detection instrument (available from Caliper Life Sciences, Waltham, Mass.). […] As substrate and product peptides were separated, two peaks of fluorescence were observed. Change in the relative fluorescence intensity of the substrate and product peaks was the parameter measured, reflecting enzyme activity. […] Capillary electrophoregrams (RDA acquisition files) were analyzed using HTS Well Analyzer software (available from Caliper Life Sciences, Waltham, Mass.). […]

[2] = target: T1, TXK (Homo sapiens, UniProt P42681); experiment: Other kinase MSA: TXK
T1 sequence (P42681 1-527): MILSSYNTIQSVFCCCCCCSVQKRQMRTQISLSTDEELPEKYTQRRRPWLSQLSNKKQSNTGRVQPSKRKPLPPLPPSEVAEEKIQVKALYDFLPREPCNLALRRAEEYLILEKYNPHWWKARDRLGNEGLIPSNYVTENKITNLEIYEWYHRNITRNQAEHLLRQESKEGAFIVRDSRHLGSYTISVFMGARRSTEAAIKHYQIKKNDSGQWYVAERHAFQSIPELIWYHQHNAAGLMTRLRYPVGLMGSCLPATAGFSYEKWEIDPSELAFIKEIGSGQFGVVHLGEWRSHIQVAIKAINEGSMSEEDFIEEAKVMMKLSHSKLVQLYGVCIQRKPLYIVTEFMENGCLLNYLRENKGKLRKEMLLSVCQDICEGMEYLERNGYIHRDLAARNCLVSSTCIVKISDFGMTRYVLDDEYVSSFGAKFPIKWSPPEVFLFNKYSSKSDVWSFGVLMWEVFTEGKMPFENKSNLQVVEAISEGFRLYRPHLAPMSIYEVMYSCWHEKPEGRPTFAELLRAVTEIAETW
Procedure: as §1, §2, §3

[3] = target: T2, TEC (Homo sapiens, UniProt P42680); experiment: Other kinase MSA: TEC
T2 sequence (P42680 1-631): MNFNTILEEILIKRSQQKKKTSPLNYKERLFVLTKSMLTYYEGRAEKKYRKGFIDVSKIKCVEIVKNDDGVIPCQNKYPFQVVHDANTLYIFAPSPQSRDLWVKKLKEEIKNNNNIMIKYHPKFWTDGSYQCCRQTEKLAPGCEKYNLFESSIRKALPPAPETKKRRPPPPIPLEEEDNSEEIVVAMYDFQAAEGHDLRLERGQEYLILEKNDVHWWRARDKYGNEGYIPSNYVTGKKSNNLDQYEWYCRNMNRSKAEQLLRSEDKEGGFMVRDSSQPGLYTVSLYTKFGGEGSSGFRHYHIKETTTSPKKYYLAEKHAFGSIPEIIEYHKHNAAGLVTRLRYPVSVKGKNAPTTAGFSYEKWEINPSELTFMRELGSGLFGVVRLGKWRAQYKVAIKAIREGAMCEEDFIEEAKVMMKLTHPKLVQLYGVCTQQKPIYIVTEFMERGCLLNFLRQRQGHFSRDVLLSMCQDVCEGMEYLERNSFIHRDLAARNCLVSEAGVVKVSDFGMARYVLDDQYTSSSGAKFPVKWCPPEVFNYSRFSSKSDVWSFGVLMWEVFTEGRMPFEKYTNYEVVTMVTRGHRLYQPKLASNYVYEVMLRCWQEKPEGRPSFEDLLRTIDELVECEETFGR
Procedure: as §1, §2, §3

MAP2K2, sequence (P36507 whole entry, species assumed): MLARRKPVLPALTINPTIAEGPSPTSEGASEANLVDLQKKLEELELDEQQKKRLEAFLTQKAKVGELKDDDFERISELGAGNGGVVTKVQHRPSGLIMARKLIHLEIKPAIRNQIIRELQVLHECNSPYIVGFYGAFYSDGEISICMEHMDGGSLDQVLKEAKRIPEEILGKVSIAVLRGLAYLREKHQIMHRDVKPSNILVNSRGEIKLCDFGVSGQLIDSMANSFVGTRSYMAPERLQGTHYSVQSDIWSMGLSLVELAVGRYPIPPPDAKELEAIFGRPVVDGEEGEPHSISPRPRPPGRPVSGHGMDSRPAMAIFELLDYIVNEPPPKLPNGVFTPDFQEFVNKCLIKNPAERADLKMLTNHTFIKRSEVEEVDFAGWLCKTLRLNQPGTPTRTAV

IC50 [1]	IC50 ([2]; 100 μM ATP, SRCtide substrate, 3 hours, read-out: IC50, Enzyme TXK)	IC50 ([3]; 50 μM ATP, SRCtide substrate, 3 hours, read-out: IC50, Enzyme TEC)	IC50 [2]	IC50 [3]	Structure (SMILES)
0.075 µM	1.9 nM	0.8 nM			C=CC(=O)N1CCC([C@@H]2CCNc3c(C(N)=O)c(-c4ccc(Oc5ccccc5)cc4)nn32)CC1 [Compound A, reference compound]
7.8 µM			222 nM	14.7 nM	C=CC(=O)N1CCN([C@@H]2CCNc3c2nn(-c2ccc(Oc4ccccc4)cc2)c3C(N)=O)CC1 [Example 6, (7R)-2-(4-phenoxyphenyl)-7-[4-(prop-2-enoyl)piperazin-1-yl]-4,5,6,7-tetrahydro-2H-pyrazolo[4,3-b]pyridine-3-carboxamide]
